Data set [1] deals with DYRK1A-mediated tau phosphorylation and Aβ production. Details: method as in PMID 25556849. The conditions noted are these: cellular; cited from earlier work.
The test system of data set [2] is DYRK1B. Also noted: method as in PMID 27766861, PMID 25268714, PMID 25264830. Particulars: cited from earlier work.
Data set [3] relates to DYRK1A. The conditions noted are these: read-out: IC50 DYRK1A; cited from earlier work.
Another data set deals with CLK1 (Mus musculus, UniProt P22518). Kind of data set: Protein kinase assay ([γ-33P]-ATP, RS peptide substrate), CLK1. The format is biochemical. How it is done: (§1) DYRK1A, 1B, 2, 3 (human, recombinant, expressed in E. coli as GST fusion proteins) and CLK1, 2, 3, and 4 (mouse, recombinant, expressed in E. coli as GST fusion proteins) were assayed as described for GSK-3 in Buffer A (supplemented extemporaneously with 0.15 mg BSA/mL + 1 mM DTT) with 1 µg of RS peptide ([…]) as a substrate.
Chain of CLK1 (P22518 whole entry, the tested form may be a part): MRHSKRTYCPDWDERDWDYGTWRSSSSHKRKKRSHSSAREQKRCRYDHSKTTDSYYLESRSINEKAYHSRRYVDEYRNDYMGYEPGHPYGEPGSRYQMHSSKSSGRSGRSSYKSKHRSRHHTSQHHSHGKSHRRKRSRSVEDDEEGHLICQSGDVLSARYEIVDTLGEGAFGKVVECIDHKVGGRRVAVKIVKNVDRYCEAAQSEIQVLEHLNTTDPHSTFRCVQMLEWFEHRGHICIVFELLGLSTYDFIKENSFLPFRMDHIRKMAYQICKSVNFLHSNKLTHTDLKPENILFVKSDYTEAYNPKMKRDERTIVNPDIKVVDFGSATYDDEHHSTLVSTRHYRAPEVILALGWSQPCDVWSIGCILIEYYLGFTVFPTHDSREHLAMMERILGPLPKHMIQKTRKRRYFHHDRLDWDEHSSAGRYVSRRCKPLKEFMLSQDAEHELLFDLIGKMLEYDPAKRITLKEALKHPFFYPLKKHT

The subject of another data set is GSK-3. The data set is described as follows: Protein kinase assay ([γ-33P]-ATP, GS-1 substrate), GSK-3.
Data set [4] has as its system DYRK1A (phosphorylation of T434 in SF3B1) in HeLa cells. The data set is described as follows: Inhibition of endogenous DYRK1A activity in HeLa cells (phosphorylation of T434 in GFP-SF3B1-NT, Western blot). It counts as cell-based. For orientation: Immunoblotting shows a protein as a band on a membrane.
Data set [5] in a line: Cytotoxicity, cell viability by tetrazolium dye assay (XTT assay). The format is cell-based. The conditions noted are these: human, HeLa cells, read-out: Viability of treated HeLa cells relative to control cells. As for the experimental part: To evaluate the applicability of the 2-substituted indole-3-carbonitrile compounds in cell culture experiments, we assessed toxicity of 6f, 6h, 6s and 13b on HeLa cells by viability assays (Table 4).
The inhibitors were added to the cultured cells from stock solutions in DMSO to the desired final concentration. For cytotoxicity assays, HeLa cells were grown in 96-well plates (20,000–30,000 cells per well) and incubated with the test compounds for 3 days before cell viability was evaluated with the help of a tetrazolium dye assay (XTT assay, AppliChem GmbH, Darmstadt, Germany).
For orientation: Tetrazolium assays rely on reduction of a dye to a coloured formazan, in cell work by metabolically active cells.

For data set [6], the target named is T1, DYRK1A (Homo sapiens, UniProt Q13627). The data set is described as follows: Protein kinase assay ([γ-33P]-ATP, RS peptide substrate), DYRK1A. It counts as biochemical.
In data set [7] the target is DYRK1B (Homo sapiens, UniProt Q9Y463). Kind of data set: Protein kinase assay ([γ-33P]-ATP, RS peptide substrate), DYRK1B. It counts as biochemical. The conditions noted are these: 15 µM ATP; read-out: IC50 DYRK 1B. As for the experimental part:
as §1

Data set [8] can be described thus: Thermodynamic solubility, shake-flask method with HPLC quantification. It counts as physicochemical. The conditions noted are these: phosphate buffer pH 7.4, 25 °C. As for the experimental part: For solubility assays an aqueous phosphate buffer pH 7.4 was used. The buffer was prepared by dissolving Na2HPO4 × 2 H2O (298 mg), KH2PO4 (19 mg) and NaCl (800 mg) in water (100 mL). The pH was adjusted to 7.4 by addition of hydrochloric acid. The thermodynamic solubility was determined using a shake-flask method with quantification by a HPLC method. The test compounds (500 µg) were incubated with aqueous phosphate buffer pH 7.4 (400 µL) in sealed Whatman MiniUniPrep vials (GE Healthcare, Freiburg, Germany). The mixtures were shaken at 25 °C and 400 rpm for 24–96 h (IKA KS 3000 ic control, IKA-Werke, Staufen, Germany). After 24 h, 48 h and 72 h, the mixtures were visually inspected for remaining solids and the solids were filtered off. The concentrations in the resulting saturated solutions were quantified by isocratic HPLC using calibration with external standard. If equilibrium was not reached after 72 h, solubility of a further sample was determined after 96 h. For calibration, a stock solution of 10 mM of the test compounds in DMSO was prepared and the stock solution was diluted with ACN to suitable concentrations. The AUC at the wavelength maxima was used for quantification.

The target of data set [9] is T1, DYRK1A. The data set is described as follows: Ligand-lipophilicity efficiency (pIC50 minus calculated logP). As for the experimental part: All new compounds were evaluated based on their physicochemical properties regarding Lipinski’s rule of five and the ligand-lipophilicity efficiency (LLE). Both concepts are used to assess the druglikeness of drug development candidates. […] LLE is calculated from pIC50 minus calculated logP [46].

In the next data set the target is CLK3 (Mus musculus, UniProt O35492). Kind of data set: Protein kinase assay ([γ-33P]-ATP, RS peptide substrate), CLK3. It counts as biochemical. The conditions noted are these: 10 µM compound; read-out: Inhibition at 10 µM CLK3 (class symbol). As for the experimental part:
as §1

A further data set has as its target CLK2 (Mus musculus, UniProt O35491). The data set is described as follows: Protein kinase assay ([γ-33P]-ATP, RS peptide substrate), CLK2. The format is biochemical. The conditions noted are these: 15 µM ATP. As for the experimental part:
as §1

Data set [10] in a line: Kinetic solubility, laser nephelometry. It counts as physicochemical. Particulars: phosphate buffer pH 7.4, nephelometry. How it is done:
The kinetic solubility was determined using laser nephelometry. A stock solution of the test compounds in DMSO was prepared and further diluted with DMSO to achieve a dilution series of 8–12 solutions with different concentrations. The DMSO solutions (2 µL) were placed in a row on a 96-well plate and diluted with aqueous phosphate buffer pH 7.4 (198 µL). The well plate was scanned by a nephelometer (Nephelostar Plus, BMG Labtech, Ortenberg, Germany). Unsolved particles scatter the laser light which is detected by the nephelometer. The intensity of the scattered light is proportional to the particle concentration in the suspension. The intensity of the scattered light was plotted versus the concentration to obtain a kick off curve. The concentration at which the compounds began to precipitate was directly read out from the kick off curve.

A further data set addresses T2, DYRK3 (Homo sapiens, UniProt O43781).
T2 sequence (O43781 1-588): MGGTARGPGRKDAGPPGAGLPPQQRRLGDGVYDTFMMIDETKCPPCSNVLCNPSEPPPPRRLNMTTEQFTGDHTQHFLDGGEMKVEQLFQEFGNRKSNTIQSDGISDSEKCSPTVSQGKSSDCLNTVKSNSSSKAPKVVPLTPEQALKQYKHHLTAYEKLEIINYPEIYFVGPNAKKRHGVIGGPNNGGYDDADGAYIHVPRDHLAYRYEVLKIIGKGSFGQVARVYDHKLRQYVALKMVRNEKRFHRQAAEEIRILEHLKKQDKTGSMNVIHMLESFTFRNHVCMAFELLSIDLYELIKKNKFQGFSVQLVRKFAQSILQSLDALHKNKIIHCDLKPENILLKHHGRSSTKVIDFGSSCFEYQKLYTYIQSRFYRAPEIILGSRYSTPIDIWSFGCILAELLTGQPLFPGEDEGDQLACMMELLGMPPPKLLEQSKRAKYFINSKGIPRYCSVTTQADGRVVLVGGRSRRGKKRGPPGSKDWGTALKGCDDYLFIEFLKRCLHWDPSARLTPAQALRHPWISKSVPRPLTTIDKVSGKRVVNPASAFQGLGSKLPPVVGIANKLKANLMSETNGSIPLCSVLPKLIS
The data set is described as follows: Protein kinase assay ([γ-33P]-ATP, RS peptide substrate), DYRK3. Particulars: 10 µM compound; read-out: Inhibition at 10 µM DYRK3 (class symbol). It counts as biochemical. How it is done:
as §1

The next data set has as its target CLK4 (Mus musculus, UniProt O35493). The data set is described as follows: Protein kinase assay ([γ-33P]-ATP, RS peptide substrate), CLK4. The format is biochemical. Particulars: 15 µM ATP. As for the experimental part: as §1
In a further data set the target is T3, DYRK2 (Homo sapiens, UniProt Q92630).
T3 sequence (Q92630 1-601): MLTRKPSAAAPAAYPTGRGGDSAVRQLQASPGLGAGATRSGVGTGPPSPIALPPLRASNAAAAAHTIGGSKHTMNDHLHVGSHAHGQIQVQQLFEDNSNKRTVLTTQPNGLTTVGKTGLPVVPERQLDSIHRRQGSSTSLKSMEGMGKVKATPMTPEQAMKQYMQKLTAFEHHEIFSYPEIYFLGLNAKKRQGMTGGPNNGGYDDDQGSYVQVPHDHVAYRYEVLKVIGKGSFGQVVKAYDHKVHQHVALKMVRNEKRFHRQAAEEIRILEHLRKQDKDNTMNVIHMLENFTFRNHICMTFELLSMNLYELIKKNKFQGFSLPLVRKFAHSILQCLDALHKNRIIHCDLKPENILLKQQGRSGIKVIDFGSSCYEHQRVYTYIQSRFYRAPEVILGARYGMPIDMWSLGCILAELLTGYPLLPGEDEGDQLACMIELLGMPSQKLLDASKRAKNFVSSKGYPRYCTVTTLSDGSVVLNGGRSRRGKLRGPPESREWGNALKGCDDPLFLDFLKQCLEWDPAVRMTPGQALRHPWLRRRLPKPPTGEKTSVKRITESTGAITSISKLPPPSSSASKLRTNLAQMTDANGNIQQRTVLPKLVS
The data set is described as follows: Protein kinase assay ([γ-33P]-ATP, RS peptide substrate), DYRK2. It counts as biochemical. The conditions noted are these: 10 µM compound; read-out: Inhibition at 10 µM DYRK2 (class symbol). As for the experimental part:
as §1

Chain of CLK3 (O35492 whole entry): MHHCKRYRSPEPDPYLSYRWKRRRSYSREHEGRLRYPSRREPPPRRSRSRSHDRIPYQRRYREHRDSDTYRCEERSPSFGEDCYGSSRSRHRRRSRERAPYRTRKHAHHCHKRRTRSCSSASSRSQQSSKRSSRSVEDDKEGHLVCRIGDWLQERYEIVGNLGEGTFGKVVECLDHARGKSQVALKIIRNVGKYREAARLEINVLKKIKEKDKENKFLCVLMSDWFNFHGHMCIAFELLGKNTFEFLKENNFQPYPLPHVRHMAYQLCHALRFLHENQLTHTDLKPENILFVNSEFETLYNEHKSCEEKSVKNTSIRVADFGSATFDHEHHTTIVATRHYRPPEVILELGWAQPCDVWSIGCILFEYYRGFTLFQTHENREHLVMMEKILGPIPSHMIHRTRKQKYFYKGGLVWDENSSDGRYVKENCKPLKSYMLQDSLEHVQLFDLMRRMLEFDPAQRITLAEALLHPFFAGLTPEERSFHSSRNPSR
Chain of CLK4 (O35493 whole entry): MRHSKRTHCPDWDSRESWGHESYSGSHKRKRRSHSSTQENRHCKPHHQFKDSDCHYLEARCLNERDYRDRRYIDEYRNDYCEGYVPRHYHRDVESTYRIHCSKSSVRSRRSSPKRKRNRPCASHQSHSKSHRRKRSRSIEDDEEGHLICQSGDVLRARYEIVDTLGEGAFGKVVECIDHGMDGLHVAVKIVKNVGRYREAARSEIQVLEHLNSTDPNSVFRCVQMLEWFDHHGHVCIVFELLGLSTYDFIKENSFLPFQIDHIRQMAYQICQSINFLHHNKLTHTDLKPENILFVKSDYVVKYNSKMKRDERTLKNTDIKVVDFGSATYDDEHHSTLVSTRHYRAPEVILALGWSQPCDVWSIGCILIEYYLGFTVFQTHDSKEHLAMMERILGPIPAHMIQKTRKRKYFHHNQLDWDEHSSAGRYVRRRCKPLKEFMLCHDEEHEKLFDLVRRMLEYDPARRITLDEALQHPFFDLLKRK
Chain of DYRK1B (Q9Y463 whole entry): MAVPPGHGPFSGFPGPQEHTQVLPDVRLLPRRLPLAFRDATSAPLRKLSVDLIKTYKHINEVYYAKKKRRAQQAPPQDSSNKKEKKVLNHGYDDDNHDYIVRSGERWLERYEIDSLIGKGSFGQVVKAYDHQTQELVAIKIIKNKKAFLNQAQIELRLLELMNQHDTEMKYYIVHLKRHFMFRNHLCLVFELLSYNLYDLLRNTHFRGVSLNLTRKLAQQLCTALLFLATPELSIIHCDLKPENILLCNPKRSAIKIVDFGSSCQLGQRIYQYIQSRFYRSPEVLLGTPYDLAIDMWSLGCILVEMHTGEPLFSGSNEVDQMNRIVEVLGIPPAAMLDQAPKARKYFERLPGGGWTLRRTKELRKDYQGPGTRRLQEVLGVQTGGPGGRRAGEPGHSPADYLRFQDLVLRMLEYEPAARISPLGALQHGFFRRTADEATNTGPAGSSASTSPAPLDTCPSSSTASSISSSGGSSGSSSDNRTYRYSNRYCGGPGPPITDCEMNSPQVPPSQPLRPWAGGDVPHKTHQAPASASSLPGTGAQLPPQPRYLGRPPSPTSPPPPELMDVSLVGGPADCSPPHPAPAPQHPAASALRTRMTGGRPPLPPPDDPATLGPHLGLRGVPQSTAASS
Chain of CLK2 (O35491 whole entry): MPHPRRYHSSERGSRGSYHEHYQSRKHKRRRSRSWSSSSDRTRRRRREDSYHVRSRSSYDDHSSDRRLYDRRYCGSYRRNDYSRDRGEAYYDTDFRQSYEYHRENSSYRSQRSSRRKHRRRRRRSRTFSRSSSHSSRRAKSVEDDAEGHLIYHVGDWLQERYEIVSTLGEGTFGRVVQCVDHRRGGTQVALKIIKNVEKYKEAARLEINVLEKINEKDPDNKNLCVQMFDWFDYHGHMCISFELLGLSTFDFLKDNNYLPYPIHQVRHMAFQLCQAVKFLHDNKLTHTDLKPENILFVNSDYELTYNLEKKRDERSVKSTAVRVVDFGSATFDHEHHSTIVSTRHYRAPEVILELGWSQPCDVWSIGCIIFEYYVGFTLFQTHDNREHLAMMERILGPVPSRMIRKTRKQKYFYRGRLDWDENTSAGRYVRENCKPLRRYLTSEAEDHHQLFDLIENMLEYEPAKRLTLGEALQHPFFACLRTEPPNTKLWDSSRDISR

Turning to `COC(=N)c1nc2ccc3ncnc(Nc4ccc(OC)cc4F)c3c2s1` [EHT 5372], the IC50 (in general, the midpoint of a concentration-inhibition curve) in [1] was 1060 to 1170 nM; in the data set with DYRK1B [2] it was […]; in the data set with DYRK1A [3], 0.22 nM.
As for `N#Cc1cn(Cc2ccccc2)c2c(Br)cccc12` [Compound 13b, 1-Benzyl-7-bromo-1H-indole-3-carbonitrile], the remaining activity at 10 µM on CLK1 (10 µM compound, compared to controls, read-out: Residual Activity at 10 µM CLK1) was found to be 53%. The “Residual Activity at 10 µM GSK3” value in the data set on GSK-3 (10 µM compound, compared to controls) is 114%. In [4] (HeLa cells, negative control), the “Effect on the phosphorylation of SF3B1 on T434” value is reported as “did not affect”. Besides, in data set [5], the viability (in general, the share of living cells, or the viability signal relative to a control) at 3 days, 1 µM was determined as 94%; the viability at 3 days, 3 µM was 94%; the viability at 3 days, 10 µM was 66%. The remaining activity at 10 µM at DYRK1A [6] (10 µM compound, compared to controls, read-out: Residual Activity at 10 µM DYRK 1A) is 81%.
As for `N#Cc1c(C2CCCC2)[nH]c2c(I)cccc12` [Compound 6s, 2-Cyclopentyl-7-iodo-1H-indole-3-carbonitrile], the IC50 at CLK1 (15 µM ATP) is 120 nM; at GSK-3 (read-out: IC50 GSK3, 15 µM ATP), above 10000 nM; at DYRK1B [7], 600 nM; on CLK2, 1000 nM; in [4] (Homo sapiens, HeLa cells expressing GFP-SF3B1-NT, 18 h, read-out: IC50 inhibition of endogenous DYRK1A activity in HeLa cells (pT434 SF3B1)) it was 520 nM; against CLK4, 100 nM. At DYRK1A [6] (15 µM ATP, read-out: IC50 DYRK 1A), the IC50 was 70 nM. For the same molecule, in data set [8], the “Sexp., therm., pH 7.4” value is below 0.5 µM. Also, the LLE at DYRK1A [9] (Table S2) and on DYRK1A [9] (pIC50 (DYRK1A) minus calculated logP) was 2.78 throughout. The inhibition at 10 µM on CLK3, at DYRK3 and at DYRK2 was below 20% each time. Further, in [10], the “Sexp., kin., pH 7.4” value was 16.2 (15.2–17.3) µM. Moreover, in [5], the viability at 3 days, 1 µM is 99%. Further, the viability at 3 days, 3 µM in [5] stood at 100%. Moreover, the viability at 3 days, 10 µM in data set [5] is 82%.

The values are drawn from publication PMC6017736, “Indole-3-Carbonitriles as DYRK1A Inhibitors by Fragment-Based Drug Design” (Molecules : A Journal of Synthetic Chemistry and Natural …, 2018).
